SMILES strings stand for the structures.

IC50 data for three compounds are collected here from patent US20070203194A1, “Ion channel modulators” (SCION PHARMACEUTICALS, INC., priority 2004, published 2007).

The assay deals with calcium channel (e.g., L-type, N-type, etc.) current. Kind of assay: HEK assay (whole-cell patch clamp of calcium channel currents in transiently transfected HEK-293T/17 cells). It counts as cell-based. The following applies: whole-cell voltage clamp, holding potential −100 mV. As for the experimental part:
HEK-293T/17 cells are transiently transfected in a similar manner as described in FuGENE 6 Package Insert Version 7, April 2002, Roche Applied Science, Indianapolis, Ind. The cells are plated at 2.5×10^5 cells in 2 mL in a 6-well plate in incubator for one night and achieve a 30-40% confluence. In a small sterile tube, add sufficient serum-free medium as diluent for FuGENE Transfection Reagent (Roche Applied Science, Indianapolis, Ind.), to a total volume of 100 μL. Add 3 μL of FuGENE 6 Reagent directly into this medium. The mixture is tapped gently to mix. 2 μg of DNA solution (0.8-2.0 μg/μL) is added to the prediluted FuGENE 6 Reagent from above. The DNA/Fugene 6 mixture is gently pipetted to mix the contents and incubated for about 15 minutes at room temperature. The complex mixture is then added to the HEK-293T/17 cells, distributing it around the well, and swirled to ensure even dispersal. The cells are returned to the incubator for 24 hrs. The transfected cells are then replated at density 2.5×10^5 in a 35 mm dish with 5 glass coverslips and grow in low serum (1%) media for 24 hrs. Coverslips with isolated cells are then transferred into chamber and calcium channel (e.g., L-type, N-type, etc.) current or other currents for counter screening are recorded from the transiently transfected HEK-293T/17 cells.
The whole-cell voltage clamp configuration of the patch clamp technique is employed to evaluate voltage-dependent calcium currents essentially as described by Thompson and Wong (1991) J. Physiol., 439: 671-689. To record calcium channel (e.g., L-type, N-type, etc.) currents for evaluation of inhibitory potency of compounds (steady-state concentration-response analysis), five pulses of 20-30 ms voltage steps to about +10 mV (the peak of the current voltage relationship) are delivered at five Hz every 30 second from a holding potential at −100 mV. Compound evaluations were carried out essentially as described by Sah D W and Bean B P (1994) Mol Pharmacol. 45(1):84-92. Table 3 contains IC50's for representative compounds.
On the technique in general: Patch clamp records ionic current or voltage across a cell membrane.
Usually IC50 stands for the concentration that gives 50% inhibition. Regarding `COc1ccc(C(=O)CSc2nnc(CNc3ccc(F)cc3)n2-c2ccc(C)cc2)cc1` [Compound 5], the IC50 was found to be 378 nM.
Next, `COc1ccc(C(=O)CSc2nnc(-c3ccccc3OC)n2-c2ccc(C)cc2)cc1` [Compound 28]: 572 nM; `COc1ccccc1-c1nnc(SCC(=O)Nc2ccccn2)n1-c1ccc(C)cc1` [Compound 27]: 695 nM.
